Source: patent US10800791B2, “Triazole ACC inhibitors and uses thereof” (Gilead Apollo, LLC, priority 2015, dated 2020)
pIC50: −log10 of the molar value. ≈ marks a conversion by molar mass, not a printed value. Like-named read-outs stand apart in the source and are kept apart here.

What was measured:
[1] = system: C. parapsilosis; assay: Antifungal Activity Assay (broth microtiter MIC), C. parapsilosis; format: cell-based, Candida parapsilosis; conditions: Lodderomyces parapsilosis, ATCC22019, 48 h
How it was run: (§1)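 MICs were scored by eye at 48 h relative to the growth control. Plates followed CLSI M27-A3, with Candida suspensions in RPMI 1640+MOPS giving a final 2.5×10^3 CFU/mL; the colonies came from Sabouraud agar grown overnight at 35 °C.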

[2] = biological target: human (hACC2) (Homo sapiens, UniProt O00763); assay: In vitro ACC inhibition assay (ADP-Glo), hACC2; format: biochemical; conditions: 5 nM ACC2, 20 μM ATP, 20 μM acetyl-CoA
human (hACC2), sequence (O00763 whole entry): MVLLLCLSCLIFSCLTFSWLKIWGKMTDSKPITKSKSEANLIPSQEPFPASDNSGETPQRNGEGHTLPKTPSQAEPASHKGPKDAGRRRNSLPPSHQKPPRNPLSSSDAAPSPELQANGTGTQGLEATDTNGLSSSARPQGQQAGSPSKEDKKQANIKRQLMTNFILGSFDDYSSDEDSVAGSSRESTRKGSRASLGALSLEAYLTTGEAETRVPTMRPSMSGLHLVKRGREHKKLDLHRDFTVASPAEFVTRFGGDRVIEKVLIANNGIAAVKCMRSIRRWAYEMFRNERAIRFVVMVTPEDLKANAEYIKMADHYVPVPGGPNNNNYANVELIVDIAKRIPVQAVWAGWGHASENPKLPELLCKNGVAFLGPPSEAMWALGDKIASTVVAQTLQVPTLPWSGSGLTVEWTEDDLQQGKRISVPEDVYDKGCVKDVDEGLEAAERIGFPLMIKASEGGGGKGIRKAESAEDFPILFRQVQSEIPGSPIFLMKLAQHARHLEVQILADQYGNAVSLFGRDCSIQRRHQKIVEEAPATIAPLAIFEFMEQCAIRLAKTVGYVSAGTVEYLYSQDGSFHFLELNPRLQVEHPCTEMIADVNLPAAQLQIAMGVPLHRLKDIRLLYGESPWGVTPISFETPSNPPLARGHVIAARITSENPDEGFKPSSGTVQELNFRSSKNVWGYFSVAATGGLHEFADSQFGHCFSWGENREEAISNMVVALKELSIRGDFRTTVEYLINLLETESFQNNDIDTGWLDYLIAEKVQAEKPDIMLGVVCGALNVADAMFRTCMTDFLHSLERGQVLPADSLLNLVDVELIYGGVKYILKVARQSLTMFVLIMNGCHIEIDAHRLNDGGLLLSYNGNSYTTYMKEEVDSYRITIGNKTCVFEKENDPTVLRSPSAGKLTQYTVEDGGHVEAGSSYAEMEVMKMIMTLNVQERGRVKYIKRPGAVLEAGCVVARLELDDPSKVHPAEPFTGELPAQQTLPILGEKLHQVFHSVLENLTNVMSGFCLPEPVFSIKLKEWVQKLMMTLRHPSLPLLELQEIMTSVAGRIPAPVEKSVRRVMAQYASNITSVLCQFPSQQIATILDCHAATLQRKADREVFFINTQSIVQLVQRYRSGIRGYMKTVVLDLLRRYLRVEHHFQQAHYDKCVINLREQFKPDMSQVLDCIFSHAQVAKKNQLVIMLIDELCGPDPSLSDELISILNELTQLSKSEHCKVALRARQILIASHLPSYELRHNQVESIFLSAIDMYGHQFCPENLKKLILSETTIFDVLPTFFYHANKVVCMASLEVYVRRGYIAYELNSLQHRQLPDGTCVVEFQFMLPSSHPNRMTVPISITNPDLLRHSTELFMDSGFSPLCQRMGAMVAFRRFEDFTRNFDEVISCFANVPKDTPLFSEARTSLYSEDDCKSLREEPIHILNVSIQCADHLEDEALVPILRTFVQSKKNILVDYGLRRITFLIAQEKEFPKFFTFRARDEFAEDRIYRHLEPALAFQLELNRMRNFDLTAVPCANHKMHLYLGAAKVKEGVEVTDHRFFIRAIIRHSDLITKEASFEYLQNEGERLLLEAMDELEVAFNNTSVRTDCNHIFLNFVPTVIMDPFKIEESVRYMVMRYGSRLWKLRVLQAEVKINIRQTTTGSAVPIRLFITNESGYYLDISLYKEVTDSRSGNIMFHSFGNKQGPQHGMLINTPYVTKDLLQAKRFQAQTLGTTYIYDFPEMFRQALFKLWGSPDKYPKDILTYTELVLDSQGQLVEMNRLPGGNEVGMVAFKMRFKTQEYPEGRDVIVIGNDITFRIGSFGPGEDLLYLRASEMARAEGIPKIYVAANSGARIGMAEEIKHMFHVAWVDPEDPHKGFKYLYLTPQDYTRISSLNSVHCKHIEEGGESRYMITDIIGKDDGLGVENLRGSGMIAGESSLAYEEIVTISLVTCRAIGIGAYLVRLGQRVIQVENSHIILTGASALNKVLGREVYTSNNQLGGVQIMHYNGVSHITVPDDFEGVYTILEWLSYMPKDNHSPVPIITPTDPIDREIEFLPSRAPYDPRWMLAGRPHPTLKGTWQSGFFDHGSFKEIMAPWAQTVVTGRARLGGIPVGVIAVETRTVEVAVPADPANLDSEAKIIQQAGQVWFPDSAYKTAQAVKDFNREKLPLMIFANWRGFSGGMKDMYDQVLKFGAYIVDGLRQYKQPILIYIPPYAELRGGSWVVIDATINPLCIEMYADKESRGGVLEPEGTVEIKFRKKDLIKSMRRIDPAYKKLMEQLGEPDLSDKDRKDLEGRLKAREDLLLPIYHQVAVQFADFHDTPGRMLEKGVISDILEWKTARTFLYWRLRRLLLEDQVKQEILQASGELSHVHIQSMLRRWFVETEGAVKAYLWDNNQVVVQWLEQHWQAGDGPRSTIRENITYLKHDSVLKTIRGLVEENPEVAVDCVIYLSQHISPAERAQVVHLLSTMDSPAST
Procedure: The detailed procedure is as follows. […] 10 μL ADP glo reagent was added. […] 20 μL kinase detection reagent was added.

[3] = system: Phytophthora capsici (Pc); assay: Growth inhibition assay of fungal pathogens, Pc; format: cell-based; conditions: 48 h
How it was run: (§2)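 Percent inhibition derived at 48 hours from OD600 and visual scores versus 2% DMSO control, with media+DMSO blank as background. Spore inocula in 17% V8 medium were sized from 48 h growth curves; compounds tested at final 50/10/2 or 2/0.4/0.08 ppm.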

[4] = system: Septoria tritici (St); assay: Growth inhibition assay of fungal pathogens, St; format: cell-based; conditions: Zymoseptoria tritici, 48 h
How it was run: as §2

[5] = system: C. krusei; assay: Antifungal Activity Assay (broth microtiter MIC), C. krusei; format: cell-based, Candida krusei; conditions: Pichia kudriavzevii, ATCC6258, 48 h
How it was run: as §1

[6] = system: Fusarium moniliforme (Fm); assay: Growth inhibition assay of fungal pathogens, Fm; format: cell-based; conditions: for IC90: Fusarium verticillioides, 48 h, read-out: Concentration at 90% Inhibition Fm
How it was run: as §2

[7] = system: Fusarium virguliforme (Fv); assay: Growth inhibition assay of fungal pathogens, Fv; format: cell-based; conditions: 48 h
How it was run: as §2

[8] = system: Rhizoctonia solani (Rs); assay: Growth inhibition assay of fungal pathogens, Rs; format: cell-based; conditions: 48 h
[9] = system: Botrtyis cinerea (Bc); assay: Growth inhibition assay of fungal pathogens, Bc; format: cell-based; conditions: 48 h
How it was run: as §2

[10] = Table 3a, ATCC 22019, 3 replicates, MIC recorded at 48 h, read-out: MIC, C. parapsilosis ATCC 22019
[11] = Table 3b (additional results), ATCC 22019, 3 replicates, MIC recorded at 48 h, read-out: MIC, C. parapsilosis ATCC 22019
[12] = growth inhibition at 48 hours vs 2% DMSO control, read-out: Concentration at 90% Inhibition Pc
[13] = growth inhibition vs 2% DMSO control at 48 hours, read-out: Concentration at 90% Inhibition Pc
[14] = Septoria tritici, growth inhibition at 48 hours vs 2% DMSO control, read-out: Concentration at 90% Inhibition St
[15] = Septoria tritici, growth inhibition vs 2% DMSO control at 48 hours, read-out: Concentration at 90% Inhibition St
[16] = Table 3a, ATCC 6258, 3 replicates, MIC recorded at 48 h, read-out: MIC, C. krusei ATCC 6258
[17] = Table 3b (additional results), ATCC 6258, 3 replicates, MIC recorded at 48 h, read-out: MIC, C. krusei ATCC 6258
[18] = Fusarium moniliforme, growth inhibition at 48 hours vs 2% DMSO control
[19] = Fusarium moniliforme, growth inhibition vs 2% DMSO control at 48 hours
[20] = growth inhibition at 48 hours vs 2% DMSO control, read-out: Concentration at 90% Inhibition Fv
[21] = growth inhibition vs 2% DMSO control at 48 hours, read-out: Concentration at 90% Inhibition Fv
[22] = mycelial plugs, growth inhibition at 48 hours vs 2% DMSO control, read-out: Concentration at 90% Inhibition Rs
[23] = mycelial plugs, growth inhibition vs 2% DMSO control at 48 hours, read-out: Concentration at 90% Inhibition Rs
[24] = Botrtyis cinerea, growth inhibition at 48 hours vs 2% DMSO control, read-out: Concentration at 90% Inhibition Bc
[25] = Botrtyis cinerea, growth inhibition vs 2% DMSO control at 48 hours, read-out: Concentration at 90% Inhibition Bc

SMILES	MIC [1, 10] [µg/mL]	MIC [1, 11] [µg/mL]	pIC50 ([2]; Table 2a)	pIC50 ([2]; Table 2b, additional results)	IC90 [3, 12] [µg/mL]	IC90 [3, 13] [µg/mL]	IC90 [4, 14] [µg/mL]	IC90 [4, 15] [µg/mL]	MIC [5, 16] [µg/mL]	MIC [5, 17] [µg/mL]	IC90 [6, 18] [µg/mL]	IC90 [6, 19] [µg/mL]	IC90 [7, 20] [µg/mL]	IC90 [7, 21] [µg/mL]	IC90 [8, 22] [µg/mL]	IC90 [8, 23] [µg/mL]	IC90 [9, 24] [µg/mL]	IC90 [9, 25] [µg/mL]	also measured
CCNC(=O)C(C)(C)n1c(=O)c2c(C)c(-n3nccn3)sc2n(C[C@H](OCC(C)C)c2cc(F)ccc2OC)c1=O [Compound I-9, (R)—N-ethyl-2-(1-(2-(5-fluoro-2-methoxyphenyl)-2-isobutoxyethyl)-5-methyl-2,4-dioxo-6-(2H-1,2,3-triazol-2-yl)-1,4-dihydrothieno[2,3-d]pyrimidin-3(2H)-yl)-2-methylpropanamide]	2.1 to 4 (≈ 3.58 to 6.82 µM)	1.01 to 2 (≈ 1.72 to 3.41 µM)	8.00 to 8.30	8.30 to 9.00	> 50	> 50	10 (≈ 17 µM)	> 50	0.25 to 1 (≈ 0.426 to 1.7 µM)	0.25 to 1 (≈ 0.426 to 1.7 µM)	0.08 (≈ 0.136 µM)	0.08 (≈ 0.136 µM)	0.4 (≈ 0.682 µM)	0.4 (≈ 0.682 µM)	0.4 (≈ 0.682 µM)	0.4 (≈ 0.682 µM)	0.4 (≈ 0.682 µM)	0.4 (≈ 0.682 µM)	–
COc1ccc(F)cc1[C@H](Cn1c(=O)n(C(C)(C)C(=O)N2CCCCC2)c(=O)c2c(C)c(-n3nccn3)sc21)OCC(C)C [Compound I-11, (R)-1-(2-(5-fluoro-2-methoxyphenyl)-2-isobutoxyethyl)-5-methyl-3-(2-methyl-1-oxo-1-(piperidin-1-yl)propan-2-yl)-6-(2H-1,2,3-triazol-2-yl)thieno[2,3-d]pyrimidine-2,4(1H,3H)-dione]	–	–	7.40 to 8.00	7.40 to 8.00	–	–	–	–	–	–	–	–	–	–	–	–	–	–	MIC ([1]; read-out: MIC, C. parapsilosis ATCC 22019, Table 3a, 3 replicates, MIC recorded at 48 h): 1.1 to 2 µg/mL (≈ 1.76 to 3.19 µM); MIC ([1]; read-out: MIC, C. parapsilosis ATCC 22019, Table 3b (additional results), 3 replicates, MIC recorded at 48 h): 1.01 to 2 µg/mL (≈ 1.61 to 3.19 µM); IC90 ([3]; read-out: Concentration at 90% Inhibition Pc, Phytophthora capsici, growth inhibition at 48 hours vs 2% DMSO control): > 50 µg/mL; IC90 ([3]; read-out: Concentration at 90% Inhibition Pc, Phytophthora capsici, growth inhibition vs 2% DMSO control at 48 hours): > 50 µg/mL; IC90 ([4]; read-out: Concentration at 90% Inhibition St, Septoria tritici, growth inhibition at 48 hours vs 2% DMSO control): 10 µg/mL (≈ 16 µM); IC90 ([4]; read-out: Concentration at 90% Inhibition St, Septoria tritici, growth inhibition vs 2% DMSO control at 48 hours): > 50 µg/mL; MIC ([5]; read-out: MIC, C. krusei ATCC 6258, Table 3a, 3 replicates, MIC recorded at 48 h): 1.1 to 2 µg/mL (≈ 1.76 to 3.19 µM); MIC ([5]; read-out: MIC, C. krusei ATCC 6258, Table 3b (additional results), 3 replicates, MIC recorded at 48 h): 0.25 to 1 µg/mL (≈ 0.399 to 1.6 µM); Concentration at 90% Inhibition Fm [6, 18]: AA (compound concentration of 0.08 ppm at 90% inhibition of fungal pathogens); IC90 [6]: 0.08 µg/mL (≈ 0.128 µM); IC90 ([7]; read-out: Concentration at 90% Inhibition Fv, Fusarium virguliforme, growth inhibition at 48 hours vs 2% DMSO control): 2 µg/mL (≈ 3.19 µM); IC90 ([7]; read-out: Concentration at 90% Inhibition Fv, Fusarium virguliforme, growth inhibition vs 2% DMSO control at 48 hours): 2 µg/mL (≈ 3.19 µM); IC90 ([8]; read-out: Concentration at 90% Inhibition Rs, Rhizoctonia solani, mycelial plugs, growth inhibition at 48 hours vs 2% DMSO control): 0.4 µg/mL (≈ 0.638 µM); IC90 ([8]; read-out: Concentration at 90% Inhibition Rs, Rhizoctonia solani, mycelial plugs, growth inhibition vs 2% DMSO control at 48 hours): 0.4 µg/mL (≈ 0.638 µM); IC90 ([9]; read-out: Concentration at 90% Inhibition Bc, Botrtyis cinerea, growth inhibition at 48 hours vs 2% DMSO control): 0.4 µg/mL (≈ 0.638 µM); IC90 ([9]; read-out: Concentration at 90% Inhibition Bc, Botrtyis cinerea, growth inhibition vs 2% DMSO control at 48 hours): 0.4 µg/mL (≈ 0.638 µM)
COc1ccc(F)cc1[C@H](Cn1c(=O)n(C(C)(C)C(=O)N2CCCC2)c(=O)c2c(C)c(-n3nccn3)sc21)OCC(C)C [Compound I-12, (R)-1-(2-(5-fluoro-2-methoxyphenyl)-2-isobutoxyethyl)-5-methyl-3-(2-methyl-1-oxo-1-(pyrrolidin-1-yl)propan-2-yl)-6-(2H-1,2,3-triazol-2-yl)thieno[2,3-d]pyrimidine-2,4(1H,3H)-dione]	2.1 to 4 (≈ 3.43 to 6.53 µM)	1.01 to 2 (≈ 1.65 to 3.26 µM)	7.40 to 8.00	7.40 to 8.00	> 50	> 50	2 (≈ 3.26 µM)	10 (≈ 16.3 µM)	0.25 to 1 (≈ 0.408 to 1.63 µM)	0.25 to 1 (≈ 0.408 to 1.63 µM)	0.08 (≈ 0.131 µM)	0.08 (≈ 0.131 µM)	0.4 (≈ 0.653 µM)	0.4 (≈ 0.653 µM)	0.08 (≈ 0.131 µM)	0.08 (≈ 0.131 µM)	0.4 (≈ 0.653 µM)	0.4 (≈ 0.653 µM)	–
